From ChEMBL document CHEMBL1135855, “4-amidinobenzylamine-based inhibitors of urokinase” (Bioorg Med Chem Lett, 2002)

Assays:
Coagulation factor X = Coagulation factor X (Homo sapiens, UniProt P00742); assay: In vitro inhibition of Coagulation factor Xa.
Plasminogen = Plasminogen (Homo sapiens, UniProt P00747); assay: In vitro inhibition of Plasmin.
Serine protease 1 = Serine protease 1 (Homo sapiens, UniProt P07477); assay: In vitro inhibition of trypsin.
Prothrombin = Prothrombin (Homo sapiens, UniProt P00734); assay: In vitro inhibition of thrombin.
[1] = target: T1, Urokinase-type plasminogen activator (Homo sapiens, UniProt P00749); assay: In vitro inhibition of plasminogen activator urokinase.
[2] = target: T1, Urokinase-type plasminogen activator

Chain of Coagulation factor X (P00742 41-179 limits assumed): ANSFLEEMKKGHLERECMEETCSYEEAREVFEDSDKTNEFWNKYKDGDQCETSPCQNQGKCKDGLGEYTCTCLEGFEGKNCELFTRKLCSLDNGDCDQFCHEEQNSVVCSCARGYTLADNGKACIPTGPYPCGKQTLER
Chain of Coagulation factor X (P00742 235-488 limits assumed): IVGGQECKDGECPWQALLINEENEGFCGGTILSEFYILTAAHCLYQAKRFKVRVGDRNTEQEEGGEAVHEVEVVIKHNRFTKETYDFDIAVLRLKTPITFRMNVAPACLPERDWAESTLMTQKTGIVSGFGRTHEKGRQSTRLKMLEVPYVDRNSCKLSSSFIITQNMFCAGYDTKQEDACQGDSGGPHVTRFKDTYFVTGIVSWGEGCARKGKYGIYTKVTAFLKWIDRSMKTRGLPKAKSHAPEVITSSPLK
Chain of Plasminogen (P00747 97-580 limits assumed): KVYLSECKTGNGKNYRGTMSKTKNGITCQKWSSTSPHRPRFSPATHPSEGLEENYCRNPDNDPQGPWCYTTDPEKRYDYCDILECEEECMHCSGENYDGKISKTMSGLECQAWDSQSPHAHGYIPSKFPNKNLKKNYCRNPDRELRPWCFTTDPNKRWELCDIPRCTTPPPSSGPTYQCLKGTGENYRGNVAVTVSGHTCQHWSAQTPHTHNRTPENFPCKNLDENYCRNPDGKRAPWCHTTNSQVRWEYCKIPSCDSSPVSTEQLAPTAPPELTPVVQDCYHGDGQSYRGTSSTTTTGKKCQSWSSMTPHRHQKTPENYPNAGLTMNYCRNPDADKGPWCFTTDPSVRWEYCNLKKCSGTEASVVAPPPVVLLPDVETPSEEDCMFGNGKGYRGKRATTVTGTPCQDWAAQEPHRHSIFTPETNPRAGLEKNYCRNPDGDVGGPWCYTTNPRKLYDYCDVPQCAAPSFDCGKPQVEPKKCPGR
Chain of Plasminogen (P00747 581-810 limits assumed): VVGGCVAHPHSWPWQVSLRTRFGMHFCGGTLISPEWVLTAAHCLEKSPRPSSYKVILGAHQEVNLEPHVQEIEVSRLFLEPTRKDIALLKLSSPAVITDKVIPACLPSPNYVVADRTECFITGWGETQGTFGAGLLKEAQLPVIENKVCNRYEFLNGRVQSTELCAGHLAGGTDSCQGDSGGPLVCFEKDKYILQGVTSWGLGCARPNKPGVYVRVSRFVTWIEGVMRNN
Chain of Serine protease 1 (P07477 whole entry): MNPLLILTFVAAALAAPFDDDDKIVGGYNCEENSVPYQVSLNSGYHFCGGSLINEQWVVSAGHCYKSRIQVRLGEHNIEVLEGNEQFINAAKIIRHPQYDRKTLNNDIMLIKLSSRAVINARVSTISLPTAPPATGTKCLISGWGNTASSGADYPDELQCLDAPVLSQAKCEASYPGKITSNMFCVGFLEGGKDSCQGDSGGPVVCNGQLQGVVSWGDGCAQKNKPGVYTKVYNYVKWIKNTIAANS

SMILES | Ki (Coagulation factor X) | Ki (Plasminogen) | Ki (Serine protease 1) | Ki (Prothrombin) | Ki [1] | Ki [2]
N=C(N)c1ccc(CNC(=O)CNS(=O)(=O)c2ccc3ccccc3c2)cc1 | 10.6 µM | 43 µM | 0.65 µM | 16 µM | – | –
CC(C)c1cc(S(=O)(=O)N[C@H](CO)C(=O)NCC(=O)NCc2ccc(C(=N)N)cc2)cc(C(C)C)c1C(C)C | 100 µM | 75 µM | 3.4 µM | 15 µM | 1.5 µM | –
N=C(N)c1ccc(CNC(=O)CNC(=O)[C@@H](CO)NS(=O)(=O)CC2CCCCC2)cc1 | 2 µM | 17 µM | 0.11 µM | 10 µM | – | –
C[C@H](NC(=O)[C@@H](CO)NS(=O)(=O)CCc1ccccc1)C(=O)N[C@H]1CCCN(C(=N)N)C1O (stereo partly drawn) | – | – | – | – | – | 3.1 µM
CC(C)(C)OC(=O)NC(CCC(=O)O)C(=O)NCC(=O)NCc1ccc(C(=N)N)cc1 (stereo not drawn) | > 1000 µM | > 1000 µM | 2.8 µM | > 1000 µM | 82 µM | –
N=C(N)c1ccc(CNC(=O)CNC(=O)[C@H](N)CO)cc1 | > 1000 µM | > 1000 µM | 6.9 µM | 200 µM | – | –
N=C(N)c1ccc(CNC(=O)CNC(=O)[C@@H](N)CCC(=O)O)cc1 | > 1000 µM | > 1000 µM | 5 µM | > 1000 µM | 22 µM | –
N=C(N)c1ccc(CNC(=O)CNC(=O)[C@@H](N)CO)cc1 | > 1000 µM | > 1000 µM | 7 µM | > 1000 µM | – | –
N=C(N)c1ccc(CNC(=O)CNC(=O)[C@@H](CO)NS(=O)(=O)c2ccc3ccccc3c2)cc1 | 28 µM | 32 µM | 1.8 µM | 11 µM | 1.2 µM | –
CC(=O)N[C@H](CO)C(=O)NCC(=O)NCc1ccc(C(=N)N)cc1 | > 1000 µM | > 1000 µM | 14 µM | > 1000 µM | – | –
CC(C)(C)OC(=O)N[C@@H](CO)C(=O)NCC(=O)NCc1ccc(C(=N)N)cc1 | 110 µM | 210 µM | 3.4 µM | 69 µM | – | –
N=C(N)c1ccc(CNC(=O)CNC(=O)[C@@H](CO)NS(=O)(=O)CCc2ccccc2)cc1 | 28 µM | 59 µM | 0.9 µM | 33 µM | 0.49 µM | –
CC(C)(C)OC(=O)N[C@H](CO)C(=O)NCC(=O)NCc1ccc(C(=N)N)cc1 | 140 µM | > 1000 µM | 4.5 µM | 170 µM | 9 µM | –
CC(NS(=O)(=O)c1ccc2ccccc2c1)C(=O)NCc1ccc(C(=N)N)cc1 (single isomer, unassigned; (-)) | – | – | – | – | 9.6 µM | –

Continued, in another order:

Ki (Coagulation factor X) | Ki (Plasminogen) | Ki (Serine protease 1) | Ki (Prothrombin) | Ki [1] | SMILES | Ki [2]
> 1000 µM | > 1000 µM | > 1000 µM | > 1000 µM | – | N/C(=N\O)c1ccc(CNC(=O)CNC(=O)[C@@H](CO)NS(=O)(=O)Cc2ccccc2)cc1 | –
2.1 µM | 0.54 µM | 0.0033 µM | 0.11 µM | – | C[C@H](NC(=O)[C@@H](CO)NS(=O)(=O)Cc1ccccc1)C(=O)NCc1ccc(C(=N)N)cc1 | –
3 µM | – | 0.15 µM | 13 µM | – | N=C(N)c1ccc(CNC(=O)CNC(=O)[C@@H](CO)NS(=O)(=O)Cc2ccccc2)cc1 | –
2 µM | 0.15 µM | 0.0032 µM | 0.012 µM | – | N=C(N)c1ccc(CNC(=O)[C@H]2CCCN2C(=O)[C@@H](CO)NS(=O)(=O)Cc2ccccc2)cc1 | –
0.34 µM | 10.9 µM | 0.064 µM | 3 µM | – | COC(=O)OC[C@@H](NS(=O)(=O)Cc1ccccc1)C(=O)NCC(=O)NCc1ccc(C(=N)N)cc1 | –
– | 2.4 µM | 0.12 µM | 4 µM | – | CC(C)COC(=O)OC[C@@H](NS(=O)(=O)Cc1ccccc1)C(=O)NCC(=O)NCc1ccc(C(=N)N)cc1 | –
15 µM | 140 µM | 1.7 µM | 15 µM | 2.2 µM | N=C(N)c1ccc(CNC(=O)CNC(=O)[C@@H](CO)NS(=O)(=O)/C=C/c2ccccc2)cc1 | –
140 µM | 160 µM | 4.3 µM | 230 µM | 4 µM | N=C(N)c1ccc(CNC(=O)CNC(=O)[C@@H](CO)NC(=O)OCc2ccccc2)cc1 | –
0.41 µM | 0.15 µM | 0.0048 µM | 0.05 µM | 0.043 µM | CC(C)COC(=O)OC[C@@H](NS(=O)(=O)Cc1ccccc1)C(=O)N[C@@H](C)C(=O)NCc1ccc(C(=N)N)cc1 | –
